What was measured:
[1] = Cytotoxicity against African green monkey Vero cells assessed as reduction in cell viability incubated for 24 hrs by MTT assay; format: toxicity, cell-based; conditions: African green monkey (Chlorocebus sabaeus)
Plasmodium falciparum [2] = assay: Antiplasmodial activity against Plasmodium falciparum 3D7 assessed as growth inhibition measured after 72 hrs by SYBR green dye based assay; format: functional, organism-based; conditions: 3D7, 72 h
Plasmodium falciparum [3] = assay: Antiplasmodial activity against Plasmodium falciparum K1 assessed as growth inhibition measured after 72 hrs by SYBR green dye based assay; format: functional, organism-based; conditions: K1, 72 h
Plasmodium falciparum [4] = assay: Antiplasmodial activity against Plasmodium falciparum W2 assessed as reduction in plasmodial growth after 48 hrs by fluorescence based analysis; format: functional, organism-based; conditions: W2, 48 h

Row | SMILES | IC50 at 24 h [1] [nM] | IC50 (Plasmodium falciparum [2]) [nM] | IC50 (Plasmodium falciparum [3]) [nM] | IC50 (Plasmodium falciparum [4]) [nM]
1 | CCN(CC)c1ccc2c(c1)C(=O)N(CCC(=O)NCCNc1ccnc3cc(Cl)ccc13)C2=O | 203000 | – | – | –
2 | CCN1CCN(CC(Cc2ccccc2)Nc2ccnc3cc(Cl)ccc23)CC1 (configuration not stated) | – | 428 | 70.8 | –
3 | O=C(CN1C(=O)c2ccc(N3CCOCC3)cc2C1=O)NCCCCCCNc1ccnc2cc(Cl)ccc12 | 20200 | – | – | 1780
4 | Clc1ccc2c(NC(Cc3ccccc3)CN3CCN(Cc4ccc5c(c4)OCO5)CC3)ccnc2c1 (configuration not stated) | – | 757 | 89 | –
5 | O=C(CCN1C(=O)c2ccc(F)cc2C1=O)NCCCCNc1ccnc2cc(Cl)ccc12 | 110000 | – | – | 220
6 | O=C(CN1C(=O)c2ccc(N3CCOCC3)cc2C1=O)NCCNc1ccnc2cc(Cl)ccc12 | > 203000 | – | – | 3210
7 | CCN(CC)c1ccc2c(c1)C(=O)N(CCC(=O)NCCCCCCNc1ccnc3cc(Cl)ccc13)C2=O | > 182000 | – | – | 530
8 | O=C(CCN1C(=O)c2ccc(N3CCN(CCO)CC3)cc2C1=O)NCCNc1ccnc2cc(Cl)ccc12 | – | – | – | 280
9 | CCN1CCN(CC(CC(C)C)Nc2ccnc3cc(Cl)ccc23)CC1 (configuration not stated) | – | 57 | 97.8 | –
10 | O=C(CCN1C(=O)c2ccccc2C1=O)NCCCCNc1ccnc2cc(Cl)ccc12 | > 222000 | – | – | 410
11 | O=C(CCN1C(=O)c2ccc(N3CCOCC3)cc2C1=O)NCCNc1ccnc2cc(Cl)ccc12 | 26500 | – | – | 130
12 | O=C(CCN1C(=O)c2ccccc2C1=O)NCCCCCCNc1ccnc2cc(Cl)ccc12 | 87500 | – | – | 290
13 | CCN(CC)c1ccc2c(c1)C(=O)N(CC(=O)NCCNc1ccnc3cc(Cl)ccc13)C2=O | 44400 | – | – | 1140
14 | CCN1CCN(CC(C)Nc2ccnc3cc(Cl)ccc23)CC1 (configuration not stated) | – | 126 | 362 | –
15 | O=C(CN1C(=O)c2ccc(F)cc2C1=O)NCCNc1cccc2cc(Cl)ccc12 | > 235000 | – | – | 1990
16 | O=C(CCCN1C(=O)c2ccccc2C1=O)NCCCCCCNc1ccnc2cc(Cl)ccc12 | > 203000 | – | – | 1570
17 | CC(C)CC(CN1CCN(c2ncccn2)CC1)Nc1ccnc2cc(Cl)ccc12 (configuration not stated) | – | 460 | 352 | –
18 | CCN1CCN(CC(CC(C)C)Nc2ccnc3cc(C(F)(F)F)ccc23)CC1 (configuration not stated) | – | 24.5 | 798 | –
19 | O=C(CN1C(=O)c2ccc(N3CCN(CCO)CC3)cc2C1=O)NCCCCCCNc1ccnc2cc(Cl)ccc12 | > 169000 | – | – | 460

Row | SMILES | IC50 at 24 h [1] [nM] | IC50 (Plasmodium falciparum [2]) [nM] | IC50 (Plasmodium falciparum [3]) [nM] | IC50 (Plasmodium falciparum [4]) [nM]
20 | CC(C)CC(CN1CCN(Cc2ccc3c(c2)OCO3)CC1)Nc1ccnc2cc(Cl)ccc12 (configuration not stated) | – | 211 | 453 | –
21 | O=C(CCN1C(=O)c2ccccc2C1=O)NCCCCCCCCNc1ccnc2cc(Cl)ccc12 | > 198000 | – | – | 150
22 | O=C(CCN1C(=O)c2ccc(N3CCOCC3)cc2C1=O)NCCCCNc1ccnc2cc(Cl)ccc12 | 136000 | – | – | 220
23 | O=C(CCCN1C(=O)c2ccccc2C1=O)NCCCCCCCCNc1ccnc2cc(Cl)ccc12 | 102000 | – | – | 580
24 | O=C(CN1C(=O)c2ccc(N3CCOCC3)cc2C1=O)NCCCCNc1ccnc2cc(Cl)ccc12 | > 192000 | – | – | 1280
25 | CC(C)CC(CN1CCN(c2ccccc2)CC1)Nc1ccnc2cc(Cl)ccc12 (configuration not stated) | – | 521 | > 1000 | –
26 | O=C(CN1C(=O)c2ccc(F)cc2C1=O)NCCCCNc1ccnc2cc(Cl)ccc12 | > 220000 | – | – | 1050
27 | CC(CN1CCN(c2ccccc2)CC1)Nc1ccnc2cc(Cl)ccc12 (configuration not stated) | – | 538 | 784 | –
28 | CC(CN1CCN(Cc2ccc3c(c2)OCO3)CC1)Nc1ccnc2cc(Cl)ccc12 (configuration not stated) | – | 108 | 71.4 | –
29 | CCOC(=O)N1CCN(CCNc2ccnc3cc(Cl)ccc23)CC1 | – | 899 | 162 | –
30 | O=C(CCN1C(=O)c2ccccc2C1=O)NCCNc1ccnc2cc(Cl)ccc12 | > 237000 | – | – | 300
31 | O=C(CCN1C(=O)c2ccc(F)cc2C1=O)NCCNc1ccnc2cc(Cl)ccc12 | 93200 | – | – | 360
32 | O=C(CN1C(=O)c2ccc(F)cc2C1=O)NCCCCCCNc1ccnc2cc(Cl)ccc12 | > 207000 | – | – | 1490
33 | Clc1ccc2c(NC(Cc3ccccc3)CN3CCN(c4ccccc4)CC3)ccnc2c1 (configuration not stated) | – | > 1000 | 1100 | –
34 | CC(C)CC(CN1CCN(Cc2ccc3c(c2)OCO3)CC1)Nc1ccnc2cc(C(F)(F)F)ccc12 (configuration not stated) | – | 22.6 | 46.5 | –
35 | O=C(CCN1C(=O)c2ccc(F)cc2C1=O)NCCCCCCNc1ccnc2cc(Cl)ccc12 | 57200 | – | – | 660
36 | Clc1ccc2c(NCCN3CCN(Cc4ccc5c(c4)OCO5)CC3)ccnc2c1 | – | 521 | 46.5 | –
37 | O=C(CN1C(=O)c2ccc(N3CCN(CCO)CC3)cc2C1=O)NCCCCNc1ccnc2cc(Cl)ccc12 | > 177000 | – | – | 860
38 | CC(CN1CCN(Cc2ccccc2)CC1)Nc1ccnc2cc(Cl)ccc12 (configuration not stated) | – | 405 | 84 | –

Row | SMILES | IC50 at 24 h [1] [nM] | IC50 (Plasmodium falciparum [2]) [nM] | IC50 (Plasmodium falciparum [3]) [nM] | IC50 (Plasmodium falciparum [4]) [nM]
39 | O=C(c1ccco1)N1CCN(CCNc2ccnc3cc(Cl)ccc23)CC1 | – | 993 | 4230 | –
40 | O=C(CN1C(=O)c2ccccc2C1=O)NCCCCCCNc1ccnc2cc(Cl)ccc12 | 248000 | – | – | 3350
41 | Clc1ccc2c(NC(Cc3ccccc3)CN3CCN(Cc4ccccc4)CC3)ccnc2c1 (configuration not stated) | – | > 5000 | > 5000 | –
42 | CCN1CCN(CC(Nc2ccnc3cc(Cl)ccc23)n2ccc3ccccc32)CC1 (configuration not stated) | – | 4150 | > 5000 | –
43 | CCN(CC)c1ccc2c(c1)C(=O)N(CC(=O)NCCCCNc1ccnc3cc(Cl)ccc13)C2=O | 46900 | – | – | 1170
44 | O=C(CN1C(=O)c2ccccc2C1=O)NCCCCCCCCNc1ccnc2cc(Cl)ccc12 | > 203000 | – | – | 240
45 | CCN(CC)c1ccc2c(c1)C(=O)N(CCC(=O)NCCCCNc1ccnc3cc(Cl)ccc13)C2=O | 84400 | – | – | 260
46 | CC(C)CC(CN1CCN(Cc2ccccc2)CC1)Nc1ccnc2cc(Cl)ccc12 (configuration not stated) | – | 154 | > 1000 | –
47 | O=C(CN1C(=O)c2ccccc2C1=O)NCCNc1ccnc2cc(Cl)ccc12 | > 245000 | – | – | 5650
48 | O=C(CCN1C(=O)c2ccc(N3CCOCC3)cc2C1=O)NCCCCCCNc1ccnc2cc(Cl)ccc12 | > 178000 | – | – | 640
49 | O=C(CCN1C(=O)c2ccc(N3CCN(CCO)CC3)cc2C1=O)NCCCCCCNc1ccnc2cc(Cl)ccc12 | > 165000 | – | – | 180
50 | Clc1ccc2c(NCCN3CCN(c4ncccn4)CC3)ccnc2c1 | – | 108 | 277 | –
51 | O=C(CCN1C(=O)c2ccc(N3CCN(CCO)CC3)cc2C1=O)NCCCCNc1ccnc2cc(Cl)ccc12 | 169000 | – | – | 140
52 | O=C(CCCN1C(=O)c2ccccc2C1=O)NCCNc1ccnc2cc(Cl)ccc12 | > 229000 | – | – | 280
53 | CCN(CC)c1ccc2c(c1)C(=O)N(CC(=O)NCCCCCCNc1ccnc3cc(Cl)ccc13)C2=O | > 187000 | – | – | 1220
54 | O=C(CN1C(=O)c2ccccc2C1=O)NCCCCNc1ccnc2cc(Cl)ccc12 | > 229000 | – | – | 3660
55 | O=C(CCCN1C(=O)c2ccccc2C1=O)NCCCCNc1ccnc2cc(Cl)ccc12 | > 215000 | – | – | 840
56 | O=C(CN1C(=O)c2ccc(N3CCN(CCO)CC3)cc2C1=O)NCCNc1ccnc2cc(Cl)ccc12 | > 186000 | – | – | 1040
57 | CCOC(=O)N1CCN(CC(CC(C)C)Nc2ccnc3cc(Cl)ccc23)CC1 (configuration not stated) | – | 857 | 412 | –
